According to US10328083B1, “Compositions and methods for treating stroke” (University of South Florida, priority 2012, dated 2019):
Where a name gives a salt, the structure may show the parent alone.

Key:
Format in all cases: in vivo
[1] = tested on: permanent middle cerebral artery occlusion (MCAO) in rats; assay: Results of treatment post MCAO (Table 3; CD11b staining of infarct and surrounding areas per FIGS. 2-4); settings: treatment started 6 h post MCAO; rats euthanized at 48 h post MCAO
Protocol: FIG. 1 is a table showing the conivaptan treatment regimens. The five treatment groups were normal saline (control)[NS], 5% saline infusion+5% saline maintenance [5% IM], conivaptan only [C], conivaptan+5% saline maintenance [C5% M], and conivaptan+5% saline infusion+5% saline maintenance [C5% IM]. (Euth.=euthanized).
FIG. 4 is a graph showing the average area fraction of CD11b staining at 48 hours post MCAO following the various treatments.
Permanent middle cerebral artery occlusion (MCAO) was induced in rats. Post MCAO, conivaptan, hyper saline or normal saline was administered to the rats via jugular catheter at varying times and dosages. The conivaptan used was Vaprisol® which is a conivaptan hydrochloride premixed in 5% dextrose at 20 mg/100 ml in 100 ml IV bag. The conivaptan was purchased from Astellas Pharma USA, Inc. (lot#0789065) and sub-aliquoted into sterile foil-covered vials. Hyper saline solutions were 5% NaCl. Saline solutions were 0.9% NaCl.
For rats receiving the six-hour treatment, 0.5 ml (0.35 mg/kg) bolus conivaptan was administered 6 hours post MCAO, followed by administrations of 0.1 ml (0.07 mg/kg) conivaptan at 9 hours post MCAO. At 20, 24, 28, and 32 hours post MCAO, 0.1 ml (0.07 mg/kg) conivaptan was administered. A saline control (1.4 ml of 0.9% saline) was then injected at 44 hours post MCAO. At 48 hours post MCAO, the rats were euthanized. […]

[2] = tested on: permanent middle cerebral artery occlusion (MCAO) in rats; assay: Mortality rate prior to euthanization after permanent MCAO; settings: for FD: jugular catheter, up to 48 h post MCAO
Protocol: (§1) Permanent middle cerebral artery occlusion (MCAO) was induced in rats. Post MCAO, conivaptan was administered to the rat via jugular catheter at varying times and dosages. The conivaptan used was VAPRISOL® which is a conivaptan hydrochloride premixed in 5% dextrose at 20 mg/100 ml in 100 ml IV bag. The conivaptan was purchased from Astellas Pharma USA, Inc. (lot#0789065) and sub-aliquoted into sterile foil-covered vials.
(§2) For rats receiving the 6-hour treatment, 0.5 ml (0.35 mg/kg) bolus conivaptan was administered six hours post MCAO, followed by administrations of 0.1 ml (0.07 mg/kg) conivaptan at nine hours post MCAO. At 20, 24, 28, and 32 hours post MCAO, 0.1 ml (0.07 mg/kg) conivaptan was administered. A saline control (1.4 ml of 0.9% saline) was then injected at 44 hours post MCAO. At 48 hours post MCAO, the rats were euthanized.
(§3) For rats receiving the 24-hour treatment, 0.5 ml (0.35 mg/kg) bolus conivaptan was administered 24 hours post MCAO, followed by administrations of 0.1 ml (0.07 mg/kg) conivaptan at 20, 24, 28 and 32 hours post MCAO. Saline controls (1.4 ml of 0.9% saline) were injected at 6, 9, and 44 hours post MCAO. At 48 hours post MCAO, the rats were euthanized.
The mortality rate prior to euthanization is provided below in Table 1: […]

[3] = tested on: permanent middle cerebral artery occlusion (MCAO) in rats; assay: Fluoro-Jade staining of neural biopsies from the site of the infarct after permanent MCAO
Protocol: as §1, §2, §3
Fluoro-Jade staining of neural biopsies obtained from the site of the infarct was also performed and the results are shown in Table 2.

Cc1nc2c([nH]1)-c1ccccc1N(C(=O)c1ccc(NC(=O)c3ccccc3-c3ccccc3)cc1)CC2 [conivaptan, conivaptan hydrochloride]
Avg (Table 3, results of treatment) [1]: 0.486 | FD ([2]; 6-hour treatment: 0.35 mg/kg bolus 6 h post MCAO, then 0.07 mg/kg at 9, 20, 24, 28, 32 h): 2 | % Survival ([2]; 6-hour treatment, prior to euthanization at 48 h post MCAO): 78% | % Survival (total) ([2]; 6-hour treatment, value in brackets (total), prior to euthanization at 48 h post MCAO): 82% | FD ([2]; 24-hour treatment: 0.35 mg/kg bolus 24 h post MCAO, then 0.07 mg/kg doses): 4 | % Survival ([2]; 24-hour treatment, prior to euthanization at 48 h post MCAO): 56% | Fluoro-Jade staining Avg ([3]; 6-hour treatment, n = 7, p = .06 compared to controls): 38.331 g | decrease in Fluoro-Jade staining compared to controls ([3]; 6-hour treatment, p = .06): *p = .06 compared to controls 37% decrease | Fluoro-Jade staining Avg ([3]; 24-hour treatment, n = 5, p = 0.3 compared to controls): 55.388 g
